The target in one test is human FLAP (Homo sapiens (Human), UniProt P20292). Kind of test: FLAP binding assay (HTRF format). The procedure, abridged:
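Samples were run in duplicate on each of two assay plates, the results were averaged, and the signal was expressed as an HTRF ratio.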
In general terms: Time-resolved FRET reads energy transfer from a long-lived donor to a nearby acceptor.

Test [1] relates to leukotriene pathway in human whole blood (LTB4 levels). The test can be described thus: Human whole blood assay (A23187-stimulated LTB4). Format: cell-based. Conditions: Homo sapiens, read-out: LTB4 IC50 1:1. The procedure, abridged: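 Heparinised human whole blood, diluted 1:1 in RPMI, was pre-incubated with test compounds for 15 min at 37° Celsius, then stimulated with A23187 (7 μg/mL) for 30 min at 37° Celsius. Plasma LTB4 was measured by immunoassay kit; IC50 from 4-parameter fit; single replicate, at least one healthy donor.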

The mark [2] stands for this setting: read-out: FLAP Binding wild type HTRF Ki.
Setting [3] is: human whole blood diluted 1:1, A23187-stimulated.
The mark [4] stands for this setting: human whole blood diluted 1:1 in RPMI, A23187-stimulated LTB4.
[5] abbreviates: human FLAP wild type, HTRF format, average of two plates, duplicates.

Counter-ions that a name gives are not always drawn. Like-named read-outs stand apart in the source and are kept apart here.

31 compounds from patent publication US9079866B2, “Flap modulators” (JANSSEN PHARMACEUTICA NV, priority 2013, dated 2015) can be followed below.

human FLAP, sequence (P20292 whole entry): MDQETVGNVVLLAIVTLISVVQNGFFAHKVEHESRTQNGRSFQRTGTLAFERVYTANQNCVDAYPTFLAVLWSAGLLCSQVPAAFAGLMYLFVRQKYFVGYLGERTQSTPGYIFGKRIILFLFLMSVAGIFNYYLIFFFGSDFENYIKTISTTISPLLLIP

A word on the Ki: it is the equilibrium dissociation constant of an inhibitor or competing ligand from its target. For orientation: IC50 means the concentration that gives 50% inhibition. As for `Nc1ncc(-c2ccc(-c3ccccc3S(=O)(=O)N3CCCC(F)(F)C3)cn2)cn1` [Example 679, 5-(5-{2-[(3,3-Difluoropiperidin-1-yl)sulfonyl]phenyl}pyridin-2-yl)pyrimidin-2-amine trifluoroacetic acid salt], the inhibition constant Ki at human FLAP (setting [2]) worked out at 132 nM. Further, in test [1] (setting [3]), the half-maximal inhibitory concentration (IC50) stood at 205 nM.
As for `CCCS(=O)(=O)Nc1ccccc1-c1ccc(-c2cnc(N)cn2)c(F)c1` [Example 36, N-[4′-(5-Aminopyrazin-2-yl)-3′-fluorobiphenyl-2-yl]propane-1-sulfonamide], the inhibitory constant (Ki) on human FLAP (setting [2]) is 10 nM. Further, the IC50 in test [1] (setting [4]) came to 120 nM.
In turn, `CCN(CC)S(=O)(=O)c1ccccc1-c1ccc(-c2cnc3c(c2)OCCN3)c(F)c1` [Example 391, 4′-(3,4-Dihydro-2H-pyrido[3,2-b][1,4]oxazin-7-yl)-N,N-diethyl-3′-fluorobiphenyl-2-sulfonamide] returned a Ki at human FLAP (setting [5]) of 2 nM. The 50% inhibitory concentration (IC50) in test [1] (setting [4]) was determined as 56 nM.
In the same order, the values of `CCCCCCS(=O)(=O)c1ccccc1-c1ccc(-c2cnc(N)cn2)c(F)c1` [Example 198, 5-[3-Fluoro-2′-(hexylsulfonyl)biphenyl-4-yl]pyrazin-2-amine] are 83 nM and 375 nM.
In the same order, the values of `CC[C@@H](CO)NS(=O)(=O)c1ccccc1-c1ccc(-c2cnc(N)nc2)c(F)c1` [Example 248, 4′-(2-Aminopyrimidin-5-yl)-3′-fluoro-N-[(1S)-1-(hydroxymethyl)propyl]biphenyl-2-sulfonamide] are 50 nM and 124 nM.
At human FLAP (setting [5]), `CCCCCCS(=O)(=O)Nc1ccccc1-c1ccc(-c2cnc(N)cn2)c(F)c1` [Example 39, N-[4′-(5-Aminopyrazin-2-yl)-3′-fluorobiphenyl-2-yl]hexane-1-sulfonamide] yielded a Ki of 8 nM. The half-inhibitory concentration (IC50) in test [1] (setting [4]) amounted to 75 nM.
Regarding `Nc1ncc(-c2ccc(-c3cccnc3O[C@H]3CC[C@H](N)CC3)cc2F)cn1` [Example 651, 5-(4-{2-[(trans-4-Aminocyclohexyl)oxy]pyridin-3-yl}-2-fluorophenyl)pyrimidin-2-amine], on human FLAP (wild type FLAP, HTRF format), the affinity, expressed as Ki, was 306 nM. Besides, the half-maximal inhibitory concentration (IC50) in test [1] (setting [3]) was 1540 nM.
In the same order, the values of `Nc1cnc(-c2ccc(-c3ccccc3-c3cnc(N4CCOCC4)nc3)cc2F)cn1` [Example 850, 5-[3-Fluoro-2′-(2-morpholin-4-ylpyrimidin-5-yl)biphenyl-4-yl]pyrazin-2-amine] are 37.7 nM and 195 nM.
For `Nc1ncc(-c2ccc(-c3ccccc3Oc3cc(N4CCC4)ncn3)cc2F)cn1` [Example 540, 5-{2′-[(6-Azetidin-1-ylpyrimidin-4-yl)oxy]-3-fluorobiphenyl-4-yl}pyrimidin-2-amine] the same measures were 16 nM and 85 nM.
At human FLAP (setting [5]), `N#CC1CCN(S(=O)(=O)c2ccccc2-c2ccc(-c3cnc(N)cn3)c(F)c2)CC1` [Example 64, 1-{[4′-(5-Aminopyrazin-2-yl)-3′-fluorobiphenyl-2-yl]sulfonyl}piperidine-4-carbonitrile] displayed a Ki of 2 nM. The concentration for half-maximal inhibition (IC50) in test [1] (setting [4]) is 6 nM.
`Nc1cnc(-c2ccc(-c3ccccc3C(=O)N3CCC[C@@H](O)C3)cc2F)cn1` [Example 762, (3R)-1-{[4′-(5-Aminopyrazin-2-yl)-3′-fluorobiphenyl-2-yl]carbonyl}piperidin-3-ol]: the Ki at human FLAP (wild type FLAP, HTRF format) was 159 nM. The IC50 in test [1] (setting [3]) was found to be 442 nM.
Compound `CCN(CC)S(=O)(=O)c1ccccc1-c1ccc(-c2cnc(N)nc2)c(F)c1` [Example 300, 4′-(2-Aminopyrimidin-5-yl)-N,N-diethyl-3′-fluorobiphenyl-2-sulfonamide trifluoroacetic acid salt] returned a Ki on human FLAP (setting [5]) of 13 nM. In addition, the IC50 in test [1] (setting [4]) came out at 120 nM.
For `C[C@@H]1CNCCN1S(=O)(=O)c1ccccc1-c1ccc(-c2cnc(N)cn2)c(F)c1` [Example 145, (R)-5-(3-Fluoro-2′-((2-methylpiperazin-1-yl)sulfonyl)-[1,1′-biphenyl]-4-yl)pyrazin-2-amine] the same measures were 17 nM and 21 nM.
Turning to `CC(C)(C)[C@H](CO)NS(=O)(=O)c1ccccc1-c1ccc(-c2cnc(N)nc2)c(F)c1` [Example 269, 4′-(2-Aminopyrimidin-5-yl)-3′-fluoro-N-[(1R)-1-(hydroxymethyl)-2,2-dimethylpropyl]biphenyl-2-sulfonamide trifluoroacetic acid salt], the inhibitory constant (Ki) on human FLAP (setting [2]) came out at 15 nM. Also, in test [1] (setting [4]), the half-maximal inhibitory concentration (IC50) turned out to be 87 nM.
In the case of `Nc1cnc(-c2ccc(-c3ccccc3-c3ccc(-c4cnc(N)cn4)c(F)c3)cc2F)cn1` [Example 602, 5,5′-(3,3″-Difluoro-1,1′:2′,1″-terphenyl-4,4″-diyl)dipyrazin-2-amine], affinity at human FLAP (wild type FLAP, HTRF format) was put at a Ki of 0.6 nM. The concentration for half-maximal inhibition (IC50) in test [1] (setting [3]) turned out to be 16.7 nM.
For `Nc1ccc(Oc2ccccc2-c2ccc(-c3cnc(N)cn3)c(F)c2)nc1` [Example 620, 5-{2′-[(5-Aminopyridin-2-yl)oxy]-3-fluorobiphenyl-4-yl}pyrazin-2-amine], the Ki at human FLAP (wild type FLAP, HTRF format) was 1.9 nM. In addition, the IC50 in test [1] (setting [3]) turned out to be 13.2 nM.
As to `Nc1cnc(-c2ccc(-c3ccccc3S(=O)(=O)N3CCOCC3)cc2F)cn1` [Example 44, 5-[3-Fluoro-2′-(morpholin-4-ylsulfonyl)biphenyl-4-yl]pyrazin-2-amine], at human FLAP (setting [5]), the inhibitory constant (Ki) amounted to 7 nM. In addition, in test [1] (setting [4]), the half-maximal inhibitory concentration (IC50) was 58 nM.
In the same order, the values of `CS(=O)(=O)CCCS(=O)(=O)c1ccccc1-c1ccc(-c2cnc(N)cn2)c(F)c1` [Example 246, 5-(3-Fluoro-2′-{[3-(methylsulfonyl)propyl]sulfonyl}biphenyl-4-yl)pyrazin-2-amine hydrochloride] are 199 nM and 302 nM.
Turning to `Nc1cnc(-c2ccc(-c3ccc(OC(F)(F)F)cc3F)cc2F)cn1` [Example 467, 5-[2′,3-Difluoro-4′-(trifluoromethoxy)biphenyl-4-yl]pyrazin-2-amine], the Ki on human FLAP (wild type FLAP, HTRF format) is 250 nM. Also, the IC50 in test [1] (setting [3]) came to 2830 nM.
For `Nc1ccc(-c2ccc(-c3ccccc3S(=O)(=O)N3CCOCC3)cc2F)cn1` [Example 660, 5-(3-Fluoro-2′-(morpholinosulfonyl)-[1,1′-biphenyl]-4-yl)pyridin-2-amine], the Ki on human FLAP (wild type FLAP, HTRF format) amounted to 83.3 nM. Further, the 50% inhibitory concentration (IC50) in test [1] (setting [3]) is more than 10000 nM.
In the case of `Nc1nnc(-c2ccc(-c3ccccc3S(=O)(=O)N3CCS(=O)(=O)CC3)cc2F)s1` [Example 440, 4-((4′-(5-Amino-1,3,4-thiadiazol-2-yl)-3′-fluoro-[1,1′-biphenyl]-2-yl)sulfonyl)thiomorpholine 1,1-dioxide], the Ki at human FLAP (wild type FLAP, HTRF format) is 31 nM. Also, the half-inhibitory concentration (IC50) in test [1] (setting [3]) stood at 215 nM.
Turning to `CC(C)(C)NS(=O)(=O)c1ccccc1-c1ccc(-c2cnc(N)cn2)c(F)c1F` [Example 462, 4′-(5-Aminopyrazin-2-yl)-N-tert-butyl-2′,3′-difluorobiphenyl-2-sulfonamide], the Ki at human FLAP (wild type FLAP, HTRF format) worked out at 2 nM. Also, the half-maximal inhibitory concentration (IC50) in test [1] (setting [3]) stood at 62 nM.
As for `Nc1cnc(-c2ccc(-c3ccc(C(F)(F)F)cc3O)cc2F)cn1` [Example 554, 4′-(5-Aminopyrazin-2-yl)-3′-fluoro-4-(trifluoromethyl)biphenyl-2-ol], the affinity at human FLAP (wild type FLAP, HTRF format) corresponds to a Ki of 2 nM. For the same compound, in test [1] (setting [3]), the half-inhibitory concentration (IC50) is 39 nM.
Take `Nc1cnc(-c2ccc(-c3ccccc3S(=O)(=O)NC[C@H](O)CO)cc2F)cn1` [Example 104, (S)-4′-(5-Aminopyrazin-2-yl)-N-(2,3-dihydroxypropyl)-3′-fluoro-[1,1′-biphenyl]-2-sulfonamide]: the Ki at human FLAP (setting [5]) was found to be 12 nM. Moreover, the half-inhibitory concentration (IC50) in test [1] (setting [4]) was more than 1000 nM.
On human FLAP (wild type FLAP, HTRF format), `CC(C)Oc1ncccc1-c1ccc(-c2cnc3[nH]ccc3n2)c(F)c1` [Example 399, 2-{2-Fluoro-4-[2-(1-methylethoxy)pyridin-3-yl]phenyl}-5H-pyrrolo[2,3-b]pyrazine] returned a Ki of 28 nM. The half-inhibitory concentration (IC50) in test [1] (setting [3]) amounted to 358 nM.
For `Nc1cnc(-c2ccc(-c3ccccc3NS(=O)(=O)c3ccccc3)cc2F)cn1` [Example 479, N-[4′-(5-Aminopyrazin-2-yl)-3′-fluorobiphenyl-2-yl]benzenesulfonamide] the same measures were 6 nM and 571 nM.
`Nc1cnc(Sc2ccccc2-c2ccc(-c3cnc(N)nc3)c(F)c2)nc1` [Example 329, 5-{2′-[(5-Aminopyrimidin-2-yl)sulfanyl]-3-fluorobiphenyl-4-yl}pyrimidin-2-amine formate salt] had an inhibitory constant (Ki) on human FLAP (setting [5]) of 12 nM. The concentration for half-maximal inhibition (IC50) in test [1] (setting [4]) was 66 nM.
Take `Cc1nc(N)ncc1-c1ccc(-c2ccccc2S(=O)(=O)NC(C)(C)C)cc1F` [Example 454, 4-′-(2-Amino-4-methylpyrimidin-5-yl)-N-tert-butyl-3′-fluorobiphenyl-2-sulfonamide trifluoroacetic acid salt]: the affinity on human FLAP (wild type FLAP, HTRF format) corresponds to a Ki of 12 nM. Besides, the IC50 in test [1] (setting [3]) came out at 345 nM.
`Nc1cnc(-c2ccc(-c3ccccc3S(=O)(=O)N3CC(O)C3)cc2F)cn1` [Example 119, 1-{[4′-(5-Aminopyrazin-2-yl)-3′-fluorobiphenyl-2-yl]sulfonyl}azetidin-3-ol] gave an inhibition constant (Ki) at human FLAP (setting [5]) of 3 nM. In addition, the IC50 in test [1] (setting [4]) was determined as 22 nM.
In the same order, the values of `CC(C)CNS(=O)(=O)c1ccccc1-c1ccc(-c2cnc(N)nc2)c(F)c1` [Example 294, 4′-(2-Aminopyrimidin-5-yl)-3′-fluoro-N-(2-methylpropyl)biphenyl-2-sulfonamide trifluoroacetic acid salt] are 2 nM and 248 nM.
On human FLAP (wild type FLAP, HTRF format), `Nc1cc(-c2ccc(-c3ccccc3S(=O)(=O)NC3(CO)CCCC3)cc2F)cc2cc[nH]c12` [Example 456, 4′-(7-Amino-1H-indol-5-yl)-3′-fluoro-N-[1-(hydroxymethyl)cyclopentyl]biphenyl-2-sulfonamide] gave an inhibition constant Ki of 3 nM. Further, the IC50 in test [1] (setting [3]) amounted to 114 nM.
